According to patent publication US20080171773A1, “FACTOR Xa INHIBITOR” (Pfizer Inc, priority 2006, published 2008):

Target: T1, human factor Xa (Homo sapiens, UniProt P00742)
T1 construct: factor Xa, a serine protease that occupies a pivotal position in the coagulation cascade
Assay: Factor Xa inhibitory activity: inhibition of human factor Xa cleavage of substrate S-2765
Format: biochemical
Settings: 30 pM human factor Xa, substrate S-2765 at its Km, pH 7.4, 37° C.; mean of replicates (SD, SEM and n in separate columns)
Procedure: The ability of compounds to act as inhibitors of human factor Xa catalytic activity can be assessed by determination of the concentration of test substance that inhibits by 50% (IC50) the ability of human factor Xa to cleave the chromogenic substrate S2765 (N-CBz-D-Arg-L-Gly-L-Arg-p-nitroanilide. 2HCl).
The assay was performed in triplicate using a final concentration of 30 pM of human factor Xa (diluted in buffer containing 10 mM HEPES, 150 mM NaCl, 0.1% bovine serum albumin (BSA), pH 7.4). The substrate, S-2765 (N-CBz-D-Arg-L-Gly-L-Arg-p-nitroanilide, 2HCl), was run at a final concentration equal to its Km value. The (R) enantiomer was serially diluted in 100% DMSO (final assay concentration=2% DMSO) to final concentrations of 1.0 μM to […]. Dilutions were transferred to a black polystyrene 96-plate microtiter assay plate at a volume of 2.5 μL/well. […] The reactions were initiated by the addition of 50 μL of pre-warmed substrate and immediately placed in the microplate reader pre-warmed at 37° C.
A fluorometric plate reader was used to continuously monitor the rate of change in relative fluorescence units (RFUS) per unit time. The assay plate was mixed once before reading. The fluorogenic emission was read every 44 seconds for 30 minutes (excitation/emission of λex=390 nm and λex=460 nm; automatic cutoff=455 nm) at 37° C.

T1 sequence (P00742 235-488 limits assumed): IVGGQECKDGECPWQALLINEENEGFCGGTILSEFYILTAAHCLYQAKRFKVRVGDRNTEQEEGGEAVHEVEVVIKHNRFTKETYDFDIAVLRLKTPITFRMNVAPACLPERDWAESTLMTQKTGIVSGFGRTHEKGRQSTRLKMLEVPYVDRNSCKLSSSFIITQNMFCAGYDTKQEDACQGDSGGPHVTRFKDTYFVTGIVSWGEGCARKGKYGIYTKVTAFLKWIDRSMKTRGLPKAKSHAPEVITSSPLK
T1 sequence (P00742 41-179 partner limits assumed): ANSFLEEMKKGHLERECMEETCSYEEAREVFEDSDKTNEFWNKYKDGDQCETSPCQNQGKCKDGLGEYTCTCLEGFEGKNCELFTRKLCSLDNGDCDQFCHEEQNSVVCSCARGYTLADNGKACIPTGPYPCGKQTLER

C[C@]1(C(=O)Nc2ccc(-n3ccccc3=O)cc2F)CC=NN1C(=O)Nc1ccc(Cl)cc1 [(R) enantiomer, (R)-5-Methyl-4,5-dihydro-pyrazole-1,5-dicarboxylic acid 1-[(4-chloro-phenyl)-amide] 5-{[2-fluoro-4-(2-oxo-2H-pyridin-1-yl)-phenyl]-amide}] gave an IC50 of 0.982 nM.
C[C@@]1(C(=O)Nc2ccc(-n3ccccc3=O)cc2F)CC=NN1C(=O)Nc1ccc(Cl)cc1 [(S) enantiomer, (S)-5-Methyl-4,5-dihydro-pyrazole-1,5-dicarboxylic acid 1-[(4-chloro-phenyl)-amide] 5-{[2-fluoro-4-(2-oxo-2H-pyridin-1-yl)-phenyl]-amide}] gave an IC50 of 141 nM.
